These results are taken from publication PMC6362038, “Secondary structures and cell-penetrating abilities of arginine-rich peptide foldamers” (Scientific Reports, 2019).

Numbered stars: 1 amine (or outer) side, 2 acyl side, 3 side chain; on linkers, the order of the positions; unused ones are H or OH. Square brackets hold non-standard residues; d marks the D form. Peptide text beside a SMILES is read from it. * marks the point of attachment. 5FAM = O=C1OC2(c3ccc(O)cc3Oc3cc(O)ccc32)c2ccc(C(=O)*)cc21; X1 = CO[C@H]1CC(N[*:1])(C(=O)[*:2])C[C@@H]1OC; αMeL = CC(C)C[C@](C)(N)C(=O)O; Ac5c = NC1(C(=O)O)CCCC1

In series [1] the test system is CHO-K1 cells. The series is described as follows: Cellular uptake of CF-labeled peptides into CHO-K1 cells (flow cytometry). Type of series: cell-based. As to conditions: n = 3; for cellular uptake, course over incubation time: CHO-K1, 1 µM peptide, 2, 6 and 24 h, compared with peptides of only natural α-amino acids; for cellular uptake compared with Arg peptide / cellular uptake, rank among the peptides containing dAAs: CHO-K1, 1 µM peptide; for cellular uptake compared with Arg peptide: DMEM 10% FBS; for cellular uptake, rank among the peptides containing dAAs: 2-24 h. The protocol: (§1) Cellular uptake of peptides was assessed against HeLa (Fig. 5a) and CHO-K1 cells (Fig. 5b) at a concentration of 1 µM and various incubation times (2, 6, and 24 h). […] Not only stabilities against protease digestion but also other factors might contribute to prolongation of the cell-penetrating ability of peptides. […] The number of Arg residues in Arg-rich peptides is very important for their cell-penetrating ability, and six Arg are not enough. […] Substitution of Arg in Arg peptide with Ac5c, Ac5c^dOM, or (αMe)Leu positively affected its cell-penetrating ability compared with Aib. In comparison, among the peptides containing dAAs, (αMe)Leu peptide was the best for HeLa cell, Ac5c peptide was the best for CHO-K1 cell, and Ac5c^dOM peptide was the worst for both cell types (Fig. 5). Although the best peptides were different depending on cell type, the worst peptide was same for both cell types. […] Taken together, a stable helical structure by introducing dAAs into Arg-rich peptide enhanced their cell-penetrating abilities.
(§2) HeLa or CHO-K1 cells were seeded on 24-well culture plates (100,000 cells/well) and incubated in 400 µL of DMEM containing 10% FBS. The medium was then replaced with fresh medium, and a peptide solution was added to each well at a concentration of 1 µM. After each incubation time, the medium was removed and cells were washed with ice-cold PBS with heparin (20 units/mL) and trypsinized. After the addition of medium containing 10% FBS, fluorescence intensity was detected and acquired using an On-chip Flow (On-chip Biotechnologies Co., Ltd, Tokyo, Japan). The results are presented as a mean and standard deviation obtained from 3 samples.

The subject of the next series is HeLa cells. The series is described as follows: Cellular uptake of CF-labeled peptides into HeLa cells (flow cytometry). Type of series: cell-based. The conditions noted are these: for cellular uptake, course over incubation time: 1 µM peptide, 2, 6 and 24 h, heparin wash, trypsinized, flow cytometry fluorescence, mean of n = 3; for cellular uptake, course over incubation time / cellular uptake compared with Arg peptide: DMEM 10% FBS; for cellular uptake, rank among the peptides containing dAAs / cellular uptake compared with Arg peptide: 1 µM peptide, flow cytometry, n = 3; for cellular uptake, rank among the peptides containing dAAs: 2-24 h; for cellular uptake compared with Arg peptide: 24 h. Here is the method: as §1, §2
Background: A flow cytometer gives signals particle by particle.

The nature of series [2]: Resistance to protease digestion with pronase. It counts as in vitro ADME, Streptomyces griseus. The conditions noted are these: 10 µM peptide in 2.5 × 10^−6 w/v% pronase/PBS, 37 °C, RP-HPLC, α-CHCA internal standard, read-out: intact peptide after incubation with pronase. The source says:
Next, we examined the stability of peptides against protease digestion using trypsin (Fig. 4a) and pronase (Fig. 4b). One of the advantages of peptide foldamers containing dAAs is their high resistance to degradation by proteases[38]–[40]. Trypsin is a serine protease that cleaves amide bonds at the C terminus of cationic amino acids such as Arg and lysine. Pronase is a non-specific protease mixture produced in the culture supernatant of Streptomyces griseus. Ac5c, Ac5c^dOM, (αMe)Leu, and Leu peptides were incubated with trypsin or pronase for 1, 2, and 4 h, and then rate of intact peptide was evaluated by RP-HPLC using α-cyano-4-hydroxycinnamic acid (α-CHCA) as an internal standard. Leu peptide was promptly degraded by both trypsin and pronase, and reached 0% intact peptide after 4 h incubation in a similar manner to Arg peptide reported previously[24],[25]. On the other hand, approximately 80% of Ac5c, Ac5c^dOM, and (αMe)Leu peptides remained intact even after 4 h incubation. Introduction of dAAs into peptides markedly elevated resistance to protease digestion, whether or not peptides formed stable helical structures. In other words, peptides composed of only natural α-amino acids were easily degraded by proteases independently of their peptide secondary structures.
One-hundred microliters of peptide solution (10 µM) in 2.5 × 10^−6 w/v% trypsin or pronase/phosphate buffer saline (PBS) was incubated at 37 °C for 0, 1, 2, and 4 h. After each incubation time, 250 µL of 1% TFA/PBS solution was added to inactivate the proteases, and 50 µL of 1/2 diluted saturated α-CHCA solution was added as an internal standard, followed by HPLC analysis, which was performed using the above-mentioned conditions.

Series [3] has as its system CHO-K1 cells. The experiment in a line: Inhibition of cellular uptake by specific endocytosis inhibitors. Type of series: cell-based. The conditions noted are these: 30 min pre-incubation 37 °C, 1 µM peptide, 1 h, flow cytometry, n = 3; for uptake in presence of nystatin (caveolae-mediated endocytosis inhibitor): CHO-K1, nystatin 25 µg/mL; for uptake in presence of sucrose (clathrin-mediated endocytosis inhibitor): CHO-K1, sucrose 0.4 M. The protocol: To obtain further information on the cellular uptake mechanisms of peptides, inhibitory experiments were carried out using specific endocytosis inhibitors (amilorilde: macropinocytosis; sucrose: clathrin-mediated endocytosis; nystatin: caveolae-mediated endocytosis) against CHO-K1 cells (Fig. S5). […] (αMe)Leu peptide appeared to internalize into CHO-K1 cells via all three routes, while Ac5c peptide appeared to internalize mainly via clathrin-mediated endocytosis and caveolae-mediated endocytosis.
CHO-K1 cells were seeded on 24-well culture plates (100,000 cells/well) and incubated in 400 µL of DMEM containing 10% FBS. The medium was then replaced with fresh medium containing 10% FBS in the absence (untreated) or presence of amiloride (5 mM), sucrose (0.4 M), or nystatin (25 µg/mL), cells were pre-incubated at 37 °C for 30 min. A peptide solution was added to each well at a concentration of 1 µM. The medium was removed after 1-h incubation and subsequent operations were conducted in the same manner as cellular uptake experiments.
A c5cAc5c (aMe L e uMe)Leu untreated ami loride su cro se n ystatin
Figure S5. Effects of inhibitors on internalization of peptides against CHO-K1 cells. Error bars represent the standard deviation, n = 3. *P < 0.05, **P < 0.01.

On to `CC(C)C[C@](C)(NC(=O)[C@H](CCCNC(=N)N)NC(=O)[C@H](CCCNC(=N)N)NC(=O)[C@](C)(CC(C)C)NC(=O)[C@H](CCCNC(=N)N)NC(=O)[C@H](CCCNC(=N)N)NC(=O)[C@](C)(CC(C)C)NC(=O)[C@H](CCCNC(=N)N)NC(=O)[C@H](CCCNC(=N)N)NC(=O)CNC(=O)c1ccc2c(c1)C(=O)OC21c2ccc(O)cc2Oc2cc(O)ccc21)C(N)=O` [(αMe)Leu peptide] (5FAM-GRR[αMeL]RR[αMeL]RR[αMeL]-NH2), for which, in the series with CHO-K1 cells [1], the “cellular uptake, course over incubation time” value is on record as “prolonged cell-penetrating ability”. The “cellular uptake compared with Arg peptide” value in the series with CHO-K1 cells [1] (6 h) is reported as “higher than that of Arg peptide”. The “cellular uptake compared with Arg peptide” value with CHO-K1 cells [1] (24 h) is recorded as “higher than that of Arg peptide”. For the same compound, in the series on HeLa cells, the “cellular uptake, course over incubation time” value is “increased cellular uptake from 2 to 6 h incubations and this was maintained after 24 h incubation”; the “cellular uptake, rank among the peptides containing dAAs” value is recorded as “the best”; the “cellular uptake compared with Arg peptide” value is on record as “higher than that of Arg peptide”. In series [2], the remaining at 4 h, 10 µM is around 80%. In addition, in the series on CHO-K1 cells [3], the “uptake in presence of nystatin (caveolae-mediated endocytosis inhibitor)” value was “significantly decreased” and the “uptake in presence of sucrose (clathrin-mediated endocytosis inhibitor)” value was “significantly decreased”.

`N=C(N)NCCC[C@H](NC(=O)CNC(=O)c1ccc2c(c1)C(=O)OC21c2ccc(O)cc2Oc2cc(O)ccc21)C(=O)N[C@@H](CCCNC(=N)N)C(=O)NC1(C(=O)N[C@@H](CCCNC(=N)N)C(=O)N[C@@H](CCCNC(=N)N)C(=O)NC2(C(=O)N[C@@H](CCCNC(=N)N)C(=O)N[C@@H](CCCNC(=N)N)C(=O)NC3(C(N)=O)CCCC3)CCCC2)CCCC1` [Ac5c peptide] (5FAM-GRR[Ac5c]RR[Ac5c]RR[Ac5c]-NH2): in the series with CHO-K1 cells [1], the “cellular uptake, course over incubation time” value is given as “prolonged cell-penetrating ability” and the “cellular uptake, rank among the peptides containing dAAs” value is reported as “the best”. In addition, the “cellular uptake compared with Arg peptide” value with CHO-K1 cells [1] (6 h) is listed as “higher than that of Arg peptide”. Moreover, in the series on CHO-K1 cells [1] (24 h), the “cellular uptake compared with Arg peptide” value is “higher than that of Arg peptide”. For the same compound, in the series with HeLa cells, the “cellular uptake, course over incubation time” value is “increased cellular uptake from 2 to 6 h incubations and this was maintained after 24 h incubation”; the “cellular uptake compared with Arg peptide” value is on record as “higher than that of Arg peptide”. Moreover, the remaining at 4 h, 10 µM in series [2] was around 80%. In addition, the “uptake in presence of amiloride (macropinocytosis inhibitor)” value in the series on CHO-K1 cells [3] (CHO-K1, amiloride 5 mM) was “significantly decreased”. Moreover, in the series with CHO-K1 cells [3], the “uptake in presence of nystatin (caveolae-mediated endocytosis inhibitor)” value is “significantly decreased” and the “uptake in presence of sucrose (clathrin-mediated endocytosis inhibitor)” value is “significantly decreased”.

Regarding `CO[C@H]1CC(NC(=O)[C@H](CCCNC(=N)N)NC(=O)[C@H](CCCNC(=N)N)NC(=O)C2(NC(=O)[C@H](CCCNC(=N)N)NC(=O)[C@H](CCCNC(=N)N)NC(=O)C3(NC(=O)[C@H](CCCNC(=N)N)NC(=O)[C@H](CCCNC(=N)N)NC(=O)CNC(=O)c4ccc5c(c4)C(=O)OC54c5ccc(O)cc5Oc5cc(O)ccc54)C[C@H](OC)[C@@H](OC)C3)C[C@H](OC)[C@@H](OC)C2)(C(N)=O)C[C@@H]1OC` [Ac5c^dOM peptide] (5FAM-GRR[X1]RR[X1]RR[X1]-NH2), in the series on CHO-K1 cells [1], the “cellular uptake, course over incubation time” value is given as “prolonged cell-penetrating ability” and the “cellular uptake, rank among the peptides containing dAAs” value was “the worst”. Further, the “cellular uptake compared with Arg peptide” value with CHO-K1 cells [1] (24 h) is “higher than that of Arg peptide”. Besides, in the series with HeLa cells, the “cellular uptake, course over incubation time” value was “increased up to 24 h”; the “cellular uptake, rank among the peptides containing dAAs” value is on record as “the worst”; the “cellular uptake compared with Arg peptide” value was “higher than that of Arg peptide”. Further, the remaining at 4 h, 10 µM in series [2] is around 80%.
